Consider one compound from patent EP4806427A2, “TOPICAL PHARMACEUTICAL COMPOSITIONS” (priority 2015, dated 2016).

Structures are written as SMILES.

One data set concerns AhR pathway. As to the kind of experiment: Target profiling. Particulars: intestinal human colon adenocarcinoma. It is filed as cell-based.
Another data set relates to AhR target gene, cyp1a1. As to the kind of experiment: Expression of AhR target gene in keratinocytes and leukocytes. Type of data set: cell-based. The following applies: primary human keratinocytes, and human or rodent leukocytes.
Data set [1] in a line: Solubility of the active ingredient in different solvents. It is filed as physicochemical. The procedure: The solubility of the active ingredient in different solvents was determined. […] The following formulations were prepared with 5%, 10%, 15% and 20% MCT (Formulations 15-18). Two formulations (Formulations 19 and 20) were also prepared where Polawax (a proprietary blend of cetostearyl alcohol and emulsifiers) was replaced with cetostearyl alcohol and additional emulsifier.

A short description of data set [2]: 28 day twice daily topical administration: toxicokinetics, skin concentrations, dermal irritancy and toxicity. It is filed as in vivo, Göttingen minipigs. The method, then:
Following dose application on each dosing day, the dose sites were semi-occluded for approximately 20 ± 1 hours from the first dose and then gently washed before the next dose was applied.

The conditions of data set [3]: Gao et al. 2011; cited from earlier work.
Setting [4] is: minipig, topical or ocular, 60 mg/kg/day.

As for `CC(C)c1c(O)cc(/C=C/c2ccccc2)cc1O` [3,5-Dihydroxy-4-isopropyl-trans-stilbene], the “effect on the AhR pathway” value in the data set on AhR pathway is on record as “activator”. Besides, in the data set with AhR target gene, cyp1a1, the “expression of the AhR target gene, cyp1a1” value was “induce the expression”. The solubility entry in data set [1] (in medium chain triglycerides (MCT)) is recorded as “good solubility”. Besides, in data set [1] (in water), the solubility result was “not soluble in water”. For the same compound, the “No Observed Adverse Effect Level (NOAEL) for dermal irritation or systemic toxicity” value in data set [2] (28 days, twice daily topical, ~10% of total body surface area, highest dose tested) is 3 % (w/w). In addition, in data set [2] (Male, 60 mg/kg/day, 40320 min), the “Cmax Day 28” value is recorded as 0.845 ng/mL. Further, the “dermal irritation and systemic toxicity” value in data set [2] (minipig, in vivo) is listed as “no dermal irritation or systemic toxicity”. For the same compound, in data set [2] (setting [4]), the “gender-averaged skin concentration at necropsy, epidermis/upper dermis” value is recorded as 8265 ng/g and the “gender-averaged skin concentration at necropsy, lower dermis” value is recorded as 1830 ng/g. The “sensitivity to oxidation and photo degradation” value in data set [3] is “sensitive to oxidation and photo degradation”.
